# Results taken from publication doi:10.1101/2025.09.24.678246 (bioRxiv, 2025).
# “And” between values parts separate entries of the source, which are not always exact repeats. Equal entries are not always repeated. Where two headings read alike, the source gives them in different places.
# What was measured:
# WT H37Rv = assay: Time-kill kinetics in GAST medium; assay type: cell-based, Mycobacterium tuberculosis; settings: […], 10µM C48, GAST medium
# HT-29 = settings: 48 h; for Growth compared to DMSO control (%): HT-29 cell
# Mtb H37Rv [1] = assay type: in vivo, BALB/c mice; settings: for spleen CFU: Day 42, standard acute model, BALB/c, per mouse
# M. abscessus = assay: MIC screening against M. abscessus (NTM); assay type: cell-based; settings: Mycobacteroides abscessus
# E. faecium ATCC 19434 = assay: MIC screening: E. faecium
# Experimental: (§1) MIC measurements were based on a method previously described[6]. Overnight liquid cultures of E. coli BW, E. coli C0244, A. baumannii ATCC 17978, K. pneumoniae ATCC 43816, P. aeruginosa PA01 and E. faecium ATCC 19434 strains were inoculated with a single colony from a freshly streaked agar plate of the corresponding bacterial strain and cultured in M9 minimal medium supplemented with amino acids[6]. The bacterial culture was prepared by washing 1 mL of overnight culture in PBS pH 7.4 (x3), then diluted to OD600 = 0.5 and used to inoculate 1:1000 in M9 minimal medium with amino acids in 96-well plates. Compounds were added to 96-well plates in two-fold serial dilutions. The plates were incubated stationary at 37 °C for 18 h, then OD600 was measured. […] The assay was performed in duplicate.
# P. aeruginosa PA01 = assay: MIC screening against Gram-negative pathogens: P. aeruginosa
# Experimental: as §1
# Mtb H37Rv [2] = assay: C48 biotin deficient TB efficacy study; assay type: in vivo, BALB/c mice; settings: for bacterial burden per mouse, Fig. 5C / bacterial burden per mouse, Fig. 5D (second organ, not given): 200mg/kg
# [3] = p.o. 25 mg/kg, CD-1 mice
# BioA = BioA (Mycobacterium tuberculosis, UniProt P9WQ81); assay: BioA Ki determination (tight binding, Morrison equation, 5 nM BioA); assay type: biochemical
# BioA, sequence (P9WQ81 whole entry, looked up): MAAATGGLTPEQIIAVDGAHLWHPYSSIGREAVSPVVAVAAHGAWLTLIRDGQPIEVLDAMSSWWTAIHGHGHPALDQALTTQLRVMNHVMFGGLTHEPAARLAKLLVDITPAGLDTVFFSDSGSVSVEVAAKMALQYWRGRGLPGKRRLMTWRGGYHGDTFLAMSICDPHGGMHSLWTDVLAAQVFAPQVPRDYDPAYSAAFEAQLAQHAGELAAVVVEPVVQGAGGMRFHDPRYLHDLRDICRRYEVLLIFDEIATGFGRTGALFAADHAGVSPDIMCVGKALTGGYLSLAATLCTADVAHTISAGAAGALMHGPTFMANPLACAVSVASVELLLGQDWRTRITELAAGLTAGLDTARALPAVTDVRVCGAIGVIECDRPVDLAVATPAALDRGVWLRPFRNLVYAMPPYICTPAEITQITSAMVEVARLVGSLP
# [4] = 200 mg/kg p.o. once daily, three weeks, biotin-deficient BALB/c
# [5] = day 7 (values identical to Control: baseline)
smiles,measurement,setting,value
O=C1CCc2cc(N3CCN(C(=O)c4ccc(F)c(Br)c4)CC3)ncc21 [C48],OD580 of C48 kill kinetics,WT H37Rv; day 60,0.008
same,OD580 of C48 kill kinetics,WT H37Rv; day 63,0.008
same,OD580 of C48 kill kinetics,WT H37Rv; day 67,0.008
same,Growth compared to DMSO control (%),HT-29; 3.13 μM,103.339% and 102.14% and 102.153%
same,Growth compared to DMSO control (%),HT-29; 6.25 μM,105.34% and 100.609% and 100.571%
same,Growth compared to DMSO control (%),HT-29; 12.5 μM,103.832% and 99.2439% and 99.2304%
same,Growth compared to DMSO control (%),HT-29; 25 μM,102.371% and 98.4085% and 97.2044%
same,Growth compared to DMSO control (%),HT-29; 50 μM,101.665% and 97.1295% and 96.4305%
same,Growth compared to DMSO control (%),HT-29; 100 μM,100.396% and 97.8669% and 97.7498%
same,cytotoxicity toward HT-29,HT-29; concentrations up to 100 μM,no cytotoxicity
same,spleen CFU,Mtb H37Rv [1]; 100mg/kg C48 p.o.,1075 CFU and 3750 CFU and 6400 CFU and 18666.7 CFU and 6650 CFU and 6725 CFU
same,"bacterial burden per mouse, Fig. 5B","Mtb H37Rv [1]; 100 mg/kg, day 14 (values identical to Vehicle Control: baseline)",16500 and 43500 and 12750 and 24500 and 14500
same,"bacterial burden per mouse, Fig. 5B","Mtb H37Rv [1]; 100 mg/kg, day 28",170000
same,"bacterial burden per mouse, Fig. 5B","Mtb H37Rv [1]; 100 mg/kg, day 42",325000 and 425000 and 1800000 and 566667 and 170000 and 673000
same,spleen CFU,Mtb H37Rv [1]; 200mg/kg C48 p.o.,7225 CFU and 14500 CFU and 8975 CFU and 12750 CFU and 18750 CFU and 7075 CFU
same,"bacterial burden per mouse, Fig. 5B","Mtb H37Rv [1]; 200 mg/kg, day 14 (values identical to Vehicle Control: baseline)",16500 and 43500 and 12750 and 24500 and 14500
same,"bacterial burden per mouse, Fig. 5B","Mtb H37Rv [1]; 200 mg/kg, day 42",552500 and 365000 and 477500 and 437500 and 560000 and 517500
same,efficacy in the conventional mouse model of TB,Mtb H37Rv [1]; 100 and 200 mg/kg p.o.,failed to show efficacy
same,MIC,"M. abscessus; ATCC19977, read-out: MIC (50% growth inhibition), M. abscessus (ATCC19977), reference strain",0.5 µM
same,MIC,"M. abscessus; M. abscessus, NTM, footnote mark d, read-out: MIC",0.5 to 1 µM
same,MIC,"M. abscessus; read-out: MIC (50% growth inhibition), M. abscessus BWH-B, clinical strain",0.5 µM
same,MIC,"M. abscessus; read-out: MIC (50% growth inhibition), M. abscessus BWH-D, clinical strain",0.5 µM
same,MIC,"M. abscessus; read-out: MIC (50% growth inhibition), M. abscessus T35, clinical strain",0.5 µM
same,MIC,"M. abscessus; read-out: MIC (50% growth inhibition), M. abscessus T37, clinical strain",1 µM
same,MIC,"M. abscessus; read-out: MIC (50% growth inhibition), M. abscessus T38, clinical strain",1 µM
same,MIC,"M. abscessus; read-out: MIC (50% growth inhibition), M. abscessus T49, clinical strain",0.5 µM
same,MIC,M. abscessus; read-out: MICs against nontuberculous mycobacteria (NTM),0.5 to 1 µM
same,MIC,E. faecium ATCC 19434,inactive
same,MIC,P. aeruginosa PA01,inactive
same,reduction of bacterial burden in lungs,Mtb H37Rv [2]; [4],1.0 log10 CFU
same,reduction of bacterial burden in spleen,Mtb H37Rv [2]; [4],2.1 log10 CFU
same,"bacterial burden per mouse, Fig. 5C",Mtb H37Rv [2]; [5],700 and 200 and 360 and 1090 and 400 and 320
same,"bacterial burden per mouse, Fig. 5D (second organ, not given)",Mtb H37Rv [2]; [5],1
same,"bacterial burden per mouse, Fig. 5C",Mtb H37Rv [2]; day 21,88000 and 30000 and 12000 and 11000 and 133000 and 32000
same,"bacterial burden per mouse, Fig. 5D (second organ, not given)",Mtb H37Rv [2]; day 21,90 and 1 (3×) and 20 and 70
same,"bacterial burden per mouse, Fig. 5C",Mtb H37Rv [2]; day 28,9700 and 74000 and 49000 and 29000 and 48000 (2×) and 36000
same,"bacterial burden per mouse, Fig. 5D (second organ, not given)",Mtb H37Rv [2]; day 28,20 and 6700 and 30 and 170 and 790 and 10 and 180
same,plasma concentration,[3]; 0 h,0
same,plasma concentration,"[3]; 0.5 h, 25 mg/kg",10400 and 11300 and 10800
same,plasma concentration,"[3]; 1 h, 25 mg/kg",15700 and 11100 and 13300
same,plasma concentration,"[3]; 3 h, 25 mg/kg",12000 and 11100 and 12600
same,plasma concentration,"[3]; 5 h, 25 mg/kg",14500 and 12000 and 8860
same,plasma concentration,"[3]; 7 h, 25 mg/kg",9480 and 6360 and 8380
same,Ki,"BioA; 5 nM BioA, Morrison analysis, read-out: BioA inhibition constant (Ki)",0.2 nM
same,remaining activity at 0.000520246 µM,"BioA; Fig. 2A, [Inhibitor C48] 0.520246 nM, read-out: Fractional Vilocity (Vi/Vo %)",104%
same,remaining activity at 0.000780369 µM,"BioA; Fig. 2A, [Inhibitor C48] 0.780369 nM, read-out: Fractional Vilocity (Vi/Vo %)",90.9%
same,remaining activity at 0.00117055 µM,"BioA; Fig. 2A, [Inhibitor C48] 1.17055 nM, read-out: Fractional Vilocity (Vi/Vo %)",87.2%
same,remaining activity at 0.00175583 µM,"BioA; Fig. 2A, [Inhibitor C48] 1.75583 nM, read-out: Fractional Vilocity (Vi/Vo %)",81%
same,remaining activity at 0.00263374 µM,"BioA; Fig. 2A, [Inhibitor C48] 2.63374 nM, read-out: Fractional Vilocity (Vi/Vo %)",71.8%
same,remaining activity at 0.00395062 µM,"BioA; Fig. 2A, [Inhibitor C48] 3.95062 nM, read-out: Fractional Vilocity (Vi/Vo %)",58.3%
same,remaining activity at 0.00592593 µM,"BioA; Fig. 2A, [Inhibitor C48] 5.92593 nM, read-out: Fractional Vilocity (Vi/Vo %)",37.4%
same,remaining activity at 0.0074 µM,"BioA; Fig. 2A, [Inhibitor C48] 7.4 nM, read-out: Fractional Vilocity (Vi/Vo %)",29.2%
same,remaining activity at 0.00888889 µM,"BioA; Fig. 2A, [Inhibitor C48] 8.88889 nM, read-out: Fractional Vilocity (Vi/Vo %)",20.9%
same,remaining activity at 0.0133333 µM,"BioA; Fig. 2A, [Inhibitor C48] 13.3333 nM, read-out: Fractional Vilocity (Vi/Vo %)",9.57%
same,remaining activity at 0.02 µM,"BioA; Fig. 2A, [Inhibitor C48] 20 nM, read-out: Fractional Vilocity (Vi/Vo %)",4.24%
same,remaining activity at 0.03 µM,"BioA; Fig. 2A, [Inhibitor C48] 30 nM, read-out: Fractional Vilocity (Vi/Vo %)",1.42%
same,remaining activity at […],BioA; read-out: Fractional Vilocity (Vi/Vo %),13.1%
